Reference: US20200079766A1, “MONOCYCLIC OGA INHIBITOR COMPOUNDS” (Janssen Pharmaceutica NV, priority 2016, published 2020)

Legend:
[1] = system: OGA in HEK293 cells inducible for P301L mutant human Tau (isoform 2N4R); test: OGA cellular assay: immunocytochemical detection of O-GlcNAcylated proteins (CTD110.6 antibody) after 6 h incubation; assay type: cell-based; conditions: for Emax / EC50: Homo sapiens, HEK293, 6 h; for Emax / Cellular Emax (%): maximum = Thiamet G 200 uM; for EC50: read-out: Cellular hOGA, pEC50 (converted)
Method: HEK293 cells inducible for P301L mutant human Tau (isoform 2N4R) were established at Janssen. Thiamet-G was used for both plate validation (high control) and as reference compound (reference EC50 assay validation). OGA inhibition is evaluated through the immunocytochemical (ICC) detection of O-GlcNAcylated proteins by the use of a monoclonal antibody (CTD110.6; Cell Signaling, #9875) detecting O-GlcNAcylated residues as previoulsy described (Dorfmueller et al. 2010 Chemistry & biology, 17:1250). Inhibition of OGA will result in an increase of O-GlcNAcylated protein levels resulting in an increased signal in the experiment. Cell nuclei are stained with Hoechst to give a cell culture quality control and a rough estimate of immediate compounds toxicity, if any. ICC pictures are imaged with a Perkin Elmer Opera Phenix plate microscope and quantified with the provided software Perkin Elmer Harmony 4.1.
Cells were propagated in DMEM high Glucose (Sigma, # D5796) following standard procedures. 2 days before the cell assay cells are split, counted and seeded in Poly-D-Lysine (PDL) coated 96-wells (Greiner, #655946) plate at a cell density of 12,000 cells per cm^2 (4,000 cells per well) in 100 μl of Assay Medium (Low Glucose medium is used to reduce basal levels of GlcNAcylation) (Park et al. 2014 The Journal of biological chemistry 289:13519). At the day of compound test medium from assay plates was removed and replenished with 90 μl of fresh Assay Medium. 10 μl of compounds at a 10 fold final concentration were added to the wells. Plates were centrifuged shortly before incubation in the cell incubator for 6 hours. DMSO concentration was set to 0.2%. Medium is discarded by applying vacuum. For staining of cells medium was removed and cells washed once with 100 μl D-PBS (Sigma, # D8537). From next step onwards unless other stated assay volume was always 50 μl and incubation was performed without agitation and at room temperature. Cells were fixed in 50 μl of a 4% paraformaldehyde (PFA, Alpha aesar, #043368) PBS solution for 15 minutes at room temperature. […] Before analysis samples were washed 2 times manually for 5 minutes in ICC base buffer.
Imaging is performed using Perkin Elmer Phenix Opera using a water 20× objective and recording 9 fields per well. Intensity readout at 488 nm is used as a measure of O-GlcNAcylation level of total proteins in wells. To assess potential toxicity of compounds nuclei were counted using the Hoechst staining. IC50-values are calculated using parametric non-linear regression model fitting. As a maximum inhibition Thiamet G at a 200 uM concentration is present on each plate. In addition, a concentration response of Thiamet G is calculated on each plate.

[2] = target: T1, recombinant human Meningioma Expressed Antigen 5 (MGEA5), also referred to as O-GlcNAcase (OGA) (Homo sapiens, UniProt O60502); test: OGA biochemical assay: inhibition of FM-GlcNAc hydrolysis, fluorescence; protocol A (10 nM OGA, 1 h) or protocol B (2 nM OGA, 6 h); conditions: Enzymatic protocol B (2 nM OGA, 6 h); for IC50: read-out: Enzymatic hOGA, pIC50 (converted)
T1 construct: Full length OGA enzyme was purchased at OriGene (cat # TP322411); purchased OriGene TP322411
T1 sequence (O60502 1-916): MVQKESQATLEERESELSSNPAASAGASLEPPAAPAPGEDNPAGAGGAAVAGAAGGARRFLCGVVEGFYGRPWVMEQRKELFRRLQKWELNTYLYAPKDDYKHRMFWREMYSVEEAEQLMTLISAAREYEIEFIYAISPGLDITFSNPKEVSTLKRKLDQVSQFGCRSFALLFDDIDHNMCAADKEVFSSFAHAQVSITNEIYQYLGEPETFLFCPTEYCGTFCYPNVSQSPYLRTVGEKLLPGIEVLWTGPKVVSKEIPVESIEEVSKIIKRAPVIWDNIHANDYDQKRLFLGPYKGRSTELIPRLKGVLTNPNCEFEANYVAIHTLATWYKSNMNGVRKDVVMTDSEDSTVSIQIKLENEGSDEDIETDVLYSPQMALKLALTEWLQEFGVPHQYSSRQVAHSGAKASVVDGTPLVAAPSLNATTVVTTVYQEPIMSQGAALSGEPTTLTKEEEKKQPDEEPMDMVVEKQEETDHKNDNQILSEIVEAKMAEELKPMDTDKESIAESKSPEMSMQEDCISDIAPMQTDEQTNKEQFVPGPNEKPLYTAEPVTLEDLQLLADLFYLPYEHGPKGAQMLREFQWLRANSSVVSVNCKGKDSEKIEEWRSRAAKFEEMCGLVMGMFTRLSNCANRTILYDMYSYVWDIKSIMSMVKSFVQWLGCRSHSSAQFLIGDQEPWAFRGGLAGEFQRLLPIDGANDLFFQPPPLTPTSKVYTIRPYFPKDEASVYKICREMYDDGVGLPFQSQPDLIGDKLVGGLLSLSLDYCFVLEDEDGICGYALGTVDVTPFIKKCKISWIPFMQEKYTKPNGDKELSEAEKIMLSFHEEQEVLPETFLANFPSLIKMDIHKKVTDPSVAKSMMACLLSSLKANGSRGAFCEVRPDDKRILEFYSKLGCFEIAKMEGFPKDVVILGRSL
Source text: The assay is based on the inhibition of the hydrolysis of fluorescein mono-3-D-N-Acetyl-Glucosamine (FM-GlcNAc) (Mariappa et al. 2015, Biochem J 470:255) by the recombinant human Meningioma Expressed Antigen 5 (MGEA5), also referred to as O-GlcNAcase (OGA). The hydrolysis FM-GlcNAc (Marker Gene technologies, cat # M1485) results in the formation of ß-D-N-glucosamineacetate and fluorescein. The fluorescence of the latter can be measured at excitation wavelength 485 nm and emission wavelength 538 nm. An increase in enzyme activity results in an increase in fluorescence signal. Full length OGA enzyme was purchased at OriGene (cat # TP322411). The enzyme was stored in 25 mM Tris.HCl, pH 7.3, 100 mM glycine, 10% glycerol at −20° C. Thiamet G and GlcNAcStatin were tested as reference compounds (Yuzwa et al. 2008 Nature Chemical Biology 4:483; Yuzwa et al. 2012 Nature Chemical Biology 8:393). The assay was performed in 200 mM Citrate/phosphate buffer supplemented with 0.005% Tween-20. 35.6 g Na2HPO42H2O (Sigma, # C0759) were dissolved in 1 L water to obtain a 200 mM solution. 19.2 g citric acid (Merck, #1.06580) was dissolved in 1 L water to obtain a 100 mM solution. pH of the sodiumphosphate solution was adjusted with the citric acid solution to 7.2. The buffer to stop the reaction consists of a 500 mM Carbonate buffer, pH 11.0. 734 mg
FM-GlcNAc were dissolved in 5.48 mL DMSO to obtain a 250 mM solution and was stored at −20° C. OGA was used at a 10 nM (protocol A) or 2 nM (protocol B) concentration and FM-GlcNAc at a 100 uM final concentration. Dilutions were prepared in assay buffer.
50 nl of a compound dissolved in DMSO was dispensed on Black Proxiplate™ 384 Plus Assay plates (Perkin Elmer, #6008269) and 3 μl fl-OGA enzyme mix added subsequently. Plates were pre-incubated for 60 min at room temperature and then 2 μl FM-GlcNAc substrate mix added. […] Plates were briefly centrifuged for 1 min at 1000 rpm and incubate at room temperature for 1 h (10 nM OGA, protocol A) or 6 h (2 nM OGA, protocol B). To stop the reaction 5 μl STOP buffer were added and plates centrifuge again 1 min at 1000 rpm. Fluorescence was quantified in the Thermo Scientific Fluoroskan Ascent or the PerkinElmer EnVision with excitation wavelength 485 nm and emission wavelength 538 nm.
For analysis a best-fit curve is fitted by a minimum sum of squares method. From this an IC50 value and Hill coefficient was obtained. High control (no inhibitor) and low control (saturating concentrations of standard inhibitor) were used to define the minimum and maximum values.

Row | SMILES | Emax [1] | EC50 [1] | Emax [2] | IC50 [2] | Cellular hOGA; pEC50 [1] | Cellular Emax (%) [1] | Enzymatic Emax (%) [2] | Enzymatic hOGA; pIC50 [2]
1 | Cc1cc(O[C@@H]2CCCN(C(C)c3ccc4nccnc4c3)C2)cc(C)n1 (mixture of isomers) [compound 19] | 73.3% | 1380 nM | 100% | 6.92 nM |  |  |  | 
2 | Cc1cc(C[C@H]2CCN(C(C)c3ccc4sc(C)nc4c3)C2)cc(C)n1 (mixture of isomers) [compound 87] | 28.6% | > 1000 nM | 101% | 58.9 nM |  |  |  | 
3 | Cc1cc(C[C@H]2CCN(C(C)c3ccc4scnc4c3)C2)cc(C)n1 (mixture of isomers) [compound 88] | 50.7% | 603 nM |  |  |  |  |  | 
4 | Cc1cc(C[C@H]2CCN(C(C)c3ccc4c(c3)OCO4)C2)cc(C)n1 (mixture of isomers) [compound 93] | 37.7% | > 1000 nM | 98.4% | 309 nM |  |  |  | 
5 | Cc1cc(CC2CCN(C(C)c3ccc4c(c3)OCCO4)C2)cc(C)n1.Cl.Cl (mixture of isomers) [compound 95] |  |  |  |  | <6 | 38.2% | 101% | 6.81
6 | Cc1cc(C[C@H]2CCN(C(C)c3ccc4nccnc4c3)C2)cc(C)n1 (mixture of isomers) [compound 100] | 23.1% | > 1000 nM | 97% | 427 nM |  |  |  | 
7 | CC(=O)Nc1ncc(CN2CCC[C@H](Oc3ccnc(C)c3)C2)s1 (racemic) [compound 17] | 96.2% | 389 nM | 100% | 64.6 nM |  |  |  | 
8 | CC(=O)Nc1ncc(C(C)N2CCCC(COc3cc(C)nc(C)c3)C2)s1 (racemic) [compound 133] | 98.9% | 11.2 nM | 101% | 3.89 nM |  |  |  | 
9 | Cc1cc(CC2CCCN(C(C)c3ccc4nccnc4c3)C2)cc(C)n1 (racemic) [compound 139] | 75% | 170 nM | 101% | 10 nM |  |  |  | 
10 | Cc1cc(CC2CCCN(C(C)c3ccc4c(c3)OCO4)C2)cc(C)n1 (racemic) [compound 141] | 83.5% | 87.1 nM | 102% | 11 nM |  |  |  | 
11 | Cc1cc(CC2CCCN(C(C)c3ccc4c(c3)OCCO4)C2)cc(C)n1 (racemic) [compound 142] | 100% | 60.3 nM | 102% | 4.9 nM |  |  |  | 
12 | Cc1cc(CC2CCCN(C(C)c3ccc4scnc4c3)C2)cc(C)n1 (racemic) [compound 148] | 105% | 56.2 nM | 102% | 6.31 nM |  |  |  | 
13 | CC(=O)Nc1ncc(CN2CCCC(Nc3ccnc(C)c3)C2)s1 (racemic) [compound 155] | 84.2% | 14.8 nM | 101% | 6.03 nM |  |  |  | 
14 | Cc1cc(NC2CCCN(C(C)c3ccc4nccnc4c3)C2)cc(C)n1 (racemic) [compound 156] | 89% | 468 nM | 97.4% | 43.7 nM |  |  |  | 
15 | CC(=O)Nc1ncc(CN2CCC[C@H](Cc3cc(C)nc(C)n3)C2)s1 (single isomer, unassigned) [compound 25] | 97.8% | 9.77 nM | 101% | 1.82 nM |  |  |  | 
16 | CC(=O)Nc1ncc(CN2CCC[C@@H](Cc3cc(C)nc(C)n3)C2)s1 (single isomer, unassigned) [compound 26] | 72.3% | 525 nM | 99.5% | 26.9 nM |  |  |  | 
17 | Cc1cc(CC2CCCN(C(C)c3ccc4sc(C)nc4c3)C2)cc(C)n1 (single isomer, unassigned) [compound 118] |  |  | 100% | 46.8 nM | 6.24 | 62.2% |  | 
18 | Cc1cc(CC2CCCN(C(C)c3ccc4sc(C)nc4c3)C2)cc(C)n1 (single isomer, unassigned) [compound 119] |  |  |  | 2.88 nM | 7.38 | 107.3% | 103.7% | 
19 | CC(=O)Nc1ncc(CN2CCCC(c3cc(C)nc(C)c3)C2)s1 (single isomer, unassigned) [compound 130] | 99% | 13.2 nM | 103% | 9.12 nM |  |  |  | 
20 | CC(=O)Nc1ncc(CN2CCC(F)(F)C(COc3cc(C)nc(C)n3)C2)s1 (centres unmarked) [compound 162] |  |  | 91% | 1050 nM |  |  |  | 
21 | CC(=O)Nc1ncc(CN2CCC(F)C(COc3cc(C)nc(C)n3)C2)s1 (centres unmarked) [compound 163] |  |  | 101% | 63.1 nM |  |  |  | 
22 | CC(=O)Nc1ncc(CN2CCC[C@H](Cc3cc(C)nc(C)c3)C2)n1C [compound 174] |  |  | 40.9% | > 10000 nM |  |  |  | 
